Experiments:
[1] = Agonist activity at human cloned P2Y6 receptor expressed in human 1321N1 by FLIPR assay; type: functional
P2Y purinoceptor 2 = P2Y purinoceptor 2 (Homo sapiens, UniProt P41231); test: Agonist activity at human P2Y2 receptor expressed in human 1321N1 by FLIPR assay; type: functional
P2Y purinoceptor 4 = P2Y purinoceptor 4 (Homo sapiens, UniProt P51582); test: Agonist activity at human cloned P2Y4 receptor expressed in human 1321N1 by FLIPR assay; type: functional
P2Y purinoceptor 1 = P2Y purinoceptor 1 (Homo sapiens, UniProt P47900); test: Agonist activity at human cloned P2Y1 receptor expressed in human 1321N1 by FLIPR assay; type: functional
[2] = Metabolic stability in human bronchial epithelial cells after 120 mins; type: ADME, cell-based, Epithelial cell; settings: read-out: Stability
[3] = Metabolic stability in human bronchial epithelial cells after 180 mins; type: ADME, cell-based, Epithelial cell; settings: read-out: Stability

Chain of P2Y purinoceptor 2 (P41231 whole entry): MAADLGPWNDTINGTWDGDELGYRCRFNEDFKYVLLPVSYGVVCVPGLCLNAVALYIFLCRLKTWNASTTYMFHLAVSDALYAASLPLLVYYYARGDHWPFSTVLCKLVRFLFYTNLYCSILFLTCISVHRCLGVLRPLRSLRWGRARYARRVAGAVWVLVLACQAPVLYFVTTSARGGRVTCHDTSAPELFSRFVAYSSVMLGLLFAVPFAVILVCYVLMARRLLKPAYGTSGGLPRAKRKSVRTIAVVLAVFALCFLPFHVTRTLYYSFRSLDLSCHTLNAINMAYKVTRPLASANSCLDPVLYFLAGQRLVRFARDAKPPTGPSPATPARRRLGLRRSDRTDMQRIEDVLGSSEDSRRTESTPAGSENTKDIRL
Chain of P2Y purinoceptor 1 (P47900 whole entry): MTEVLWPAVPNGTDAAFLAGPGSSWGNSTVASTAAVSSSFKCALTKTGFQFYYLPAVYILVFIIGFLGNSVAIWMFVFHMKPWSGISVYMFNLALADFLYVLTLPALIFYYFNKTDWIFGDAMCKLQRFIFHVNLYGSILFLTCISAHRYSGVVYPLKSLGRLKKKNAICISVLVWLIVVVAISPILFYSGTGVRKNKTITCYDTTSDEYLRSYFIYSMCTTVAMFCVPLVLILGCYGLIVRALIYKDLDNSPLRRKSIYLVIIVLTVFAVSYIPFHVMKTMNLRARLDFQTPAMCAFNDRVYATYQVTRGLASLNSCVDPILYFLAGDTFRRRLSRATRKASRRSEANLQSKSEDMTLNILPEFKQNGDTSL
Chain of P2Y purinoceptor 4 (P51582 whole entry): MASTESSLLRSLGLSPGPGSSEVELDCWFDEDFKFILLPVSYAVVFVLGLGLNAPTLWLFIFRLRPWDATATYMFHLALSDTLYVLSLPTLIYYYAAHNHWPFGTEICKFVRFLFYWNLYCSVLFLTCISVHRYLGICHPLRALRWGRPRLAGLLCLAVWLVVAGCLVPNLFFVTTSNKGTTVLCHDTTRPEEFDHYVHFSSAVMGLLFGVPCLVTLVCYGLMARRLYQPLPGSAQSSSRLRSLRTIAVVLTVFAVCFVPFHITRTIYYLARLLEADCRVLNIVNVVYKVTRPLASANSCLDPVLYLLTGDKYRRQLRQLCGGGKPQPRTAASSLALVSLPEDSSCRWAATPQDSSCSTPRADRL

SMILES | EC50 [1] [µM] | EC50 (P2Y purinoceptor 2) [nM] | EC50 (P2Y purinoceptor 4) [µM] | EC50 (P2Y purinoceptor 1) [µM] | remaining at 2 h [2] [%] | remaining at 3 h [3] [%]
O=P(O)(O)OP(=O)(O)OP(=O)(O)OC[C@H]1O[C@@H](c2nc3c(F)cc(Cl)cc3s2)[C@H](O)[C@@H]1O | > 20 | 7 | 4.23 | > 20 | – | –
O=P(O)(O)OP(=O)(O)OP(=O)(O)OC[C@H]1O[C@@H](c2nc3ccccc3s2)[C@H](O)[C@@H]1O | > 20 | 22 | 4.12 | > 20 | 50 | 20
COc1cccc2sc([C@@H]3O[C@H](COP(=O)(O)OP(=O)(O)OP(=O)(O)O)[C@@H](O)[C@H]3O)nc12 | – | 700 | – | – | – | –
O=c1c2cc(F)ccc2ccn1[C@@H]1O[C@H](COP(=O)(O)OP(=O)(O)OP(=O)(O)O)[C@@H](O)[C@H]1O | – | – | – | – | 70 | 50
O=P(O)(O)OP(=O)(O)OP(=O)(O)OC[C@H]1O[C@@H](c2nc3cc(F)ccc3s2)[C@H](O)[C@@H]1O | – | 3 | – | – | – | –

More lines, now with the values ahead:

EC50 [1] [µM] | EC50 (P2Y purinoceptor 2) [nM] | EC50 (P2Y purinoceptor 4) [µM] | EC50 (P2Y purinoceptor 1) [µM] | remaining at 2 h [2] [%] | remaining at 3 h [3] [%] | SMILES
– | 42 | – | – | – | – | COc1ccc2nc([C@@H]3O[C@H](COP(=O)(O)OP(=O)(O)OP(=O)(O)O)[C@@H](O)[C@H]3O)sc2c1
– | 390 | – | – | – | – | Cc1ccc2oc([C@@H]3O[C@H](COP(=O)(O)OP(=O)(O)OP(=O)(O)O)[C@@H](O)[C@H]3O)nc2c1
– | 8 | – | – | – | – | O=P(O)(O)OP(=O)(O)OP(=O)(O)OC[C@H]1O[C@@H](c2nc3ccc(Cl)cc3s2)[C@H](O)[C@@H]1O
– | 200 | – | – | – | – | Cn1c([C@@H]2O[C@H](COP(=O)(O)OP(=O)(O)OP(=O)(O)O)[C@@H](O)[C@H]2O)nc2ccccc21
0.424 | – | – | > 2 | – | – | O=c1ccn([C@@H]2O[C@H](COP(=O)(O)OP(=O)(O)OP(=O)(O)O)[C@@H](O)[C@H]2O)c(=O)[nH]1 [URIDINE TRIPHOSPHATE]
> 20 | 10 | > 20 | > 20 | – | – | O=P(O)(O)OP(=O)(O)OP(=O)(O)OC[C@H]1O[C@@H](c2nc3cc(C(F)(F)F)ccc3s2)[C@H](O)[C@@H]1O
